Assay results: patent publication US20180371550A1, “LOSS OF TRANSCRIPTIONAL FIDELITY LEADS TO IMMUNOTHERAPY RESISTANCE IN CANCERS” (Children's Hospital Medical Center, priority 2015, published 2018)

Assays:
[1] = tested on: Cal51 cells; test: STAT1 activation after IFN-α stimulation in flavopiridol-treated cells; type: cell-based; conditions: flavopiridol for 48 hours, then IFN-α for 30 minutes, FIG. 15H
Description: Total proteins were extracted with RIPA buffer (Santa Cruz Biotechnology, sc-24948), and 15 μg protein from each sample was run in a 4-18% SDS polyacrylamide gel (Bio-Rad), and transferred onto polyvinylidene difluoride membranes. The membranes were blocked in 5% dry milk in tris-buffered saline—Tween 20 for 1 hour. Blocked membranes were incubated overnight with primary antibodies against pSer5-RNA polymerase II (1:1000, Active motif), pSer2-RNA polymerase II (1:1000, Active motif), RNA polymerase II (1:1000, Active motif), SETD2 (1:1000, abcam), CyclinT1 (1:1000, Santa Cruz), H3K36me3 (1:5000, abcam), H3K27me3 (1:5000, Active motif), Pan-acetyl-H3 (1:5000, Cell Signaling), Histone H3 (1:5000, Cell Signaling), pMAPK (1;1000, Cell Signaling), MAPK (1;1000, Cell Signaling), pAKT (1:1000, Cell Signaling), STAT1 (1:1000, Cell Signaling), pSTAT1 (1:1000, Cell Signaling), NF-κB (1:1000, Cell Signaling), pNF-κB (1:1000), Cleaved-PARP(1:1000, Cell Signaling), Caspase-3 (1;1000, Cell Signaling), β-Actin (1;1000, Cell Signaling), GAPDH (1:1000, Cell Signaling) in 5% bovine serum albumin. After washing and incubating with the appropriate secondary antibody (anti-rabbit IgG or anti-Rat IgG (1:5000, Cell signaling)), protein signals were detected with enhanced chemiluminescence (Millipore). […]

[2] = tested on: Cal51 cells; test: Cytotoxicity assay: relative viability after FasL stimulation with flavopiridol pre-treatment; type: cell-based; conditions: 24 hours FasL, 48 hour pre-treatment with 100 μM flavopiridol, FIG. 15I
Description: Equal number of cells was seeded into the wells of 96-well culture plates in their corresponding medium and incubated overnight in a 5% CO2 humidified incubator. Cells were then treated with different concentrations of hhis6FasL (0.1 ng/ml-1000 ng/ml) in the presence of 10 μg/ml anti-His antibody (Cell Signaling) for 24 hours. Dead cells were removed by washing with PBS buffer and the attached cells were fixed and stained with crystal violet solution [20% methanol, 0.5% crystal violet (Sigma) in 1× phosphate-buffered saline (PBS)] for 30 min. Excess stain was removed by gently rinsing the plates in tap water, and the plates were dried at room temperature. Crystal violet crystals were redissolved in Triton (Amresco), and cell density was determined by measuring the absorbance at 570 nm in a microplate reader (Bio-Tek Instruments).

[3] = tested on: B16/F10 mouse melanoma cells; test: Testing NK-mediated tumor cell killing in vivo (lung seeding of B16-OVA cells); design: species or system C57BL6 mice; conditions: FIG. 15J
Description: C57Bl/6 mice were injected with control or flavopiridol (100 μM) treated 2×10^5 B16-OVA cells into tail veins. One hour later, the lungs were harvested, digested in liberase and the frequency of tumor cells was assessed using quantitative PCR (Shehata et al., 2015). mRNA levels for OVA (B16-OVA) were assessed and normalized to GAPDH. […] Six mice for each group were used. The protocol and use of mice were performed with the approval of the Cincinnati Children's Institutional Animal Care and Use Committee.

[4] = tested on: Cal51 and T47D cells; test: Immunoblot of RNAP II and histone marks in cells treated with flavopiridol; type: cell-based; conditions: increasing sublethal doses of flavopiridol for 48 hours, FIG. 15G
Description: Total proteins were extracted with RIPA buffer (Santa Cruz Biotechnology, sc-24948), and 15 μg protein from each sample was run in a 4-18% SDS polyacrylamide gel (Bio-Rad), and transferred onto polyvinylidene difluoride membranes. The membranes were blocked in 5% dry milk in tris-buffered saline—Tween 20 for 1 hour. Blocked membranes were incubated overnight with primary antibodies against pSer5-RNA polymerase II (1:1000, Active motif), pSer2-RNA polymerase II (1:1000, Active motif), RNA polymerase II (1:1000, Active motif), SETD2 (1:1000, abcam), CyclinT1 (1:1000, Santa Cruz), H3K36me3 (1:5000, abcam), H3K27me3 (1:5000, Active motif), Pan-acetyl-H3 (1:5000, Cell Signaling), Histone H3 (1:5000, Cell Signaling), pMAPK (1;1000, Cell Signaling), MAPK (1;1000, Cell Signaling), pAKT (1:1000, Cell Signaling), STAT1 (1:1000, Cell Signaling), pSTAT1 (1:1000, Cell Signaling), NF-κB (1:1000, Cell Signaling), pNF-κB (1:1000), Cleaved-PARP(1:1000, Cell Signaling), Caspase-3 (1;1000, Cell Signaling), β-Actin (1;1000, Cell Signaling), GAPDH (1:1000, Cell Signaling) in 5% bovine serum albumin. After washing and incubating with the appropriate secondary antibody (anti-rabbit IgG or anti-Rat IgG (1:5000, Cell signaling)), protein signals were detected with enhanced chemiluminescence (Millipore).

SMILES: CN1CC[C@H](c2c(O)cc(O)c3c(=O)cc(-c4ccccc4Cl)oc23)[C@H](O)C1 [flavopiridol]
- response to pro-inflammatory stimuli (STAT1 activation) [1]: resistance to pro-inflammatory stimuli
- relative viability after FasL challenge [2]: resistance to pro-inflammatory stimuli and FasL challenge
- lung seeding of B16 cells (OVA mRNA normalized to GAPDH, qPCR) ([3]; B16-OVA cells treated with flavopiridol (100 μM), tail vein injection into C57Bl/6 mice, lungs after 1 hour, vs control cells): significantly increased the ability of B16 cells for lung seeding
- lung seeding of B16 cells in NK-depleted mice ([3]; as E4, mice pre-injected with anti-asialo GM1 (NK depletion)): the effect was diminished
- RNAP II and histone marks (epigenetic and transcriptional defects) [4]: widespread epigenetic and transcriptional defects
